Measurements published in publication PMC12516379, “Rotamer-Controlled Self-Immolative Linkers Enable Tunable Release of Neurosteroid Oxime Prodrugs” (ACS Medicinal Chemistry Letters, 2025).

Experiments:
[1] = Stability in PBS at room temperature via HPLC (UV); format: physicochemical; conditions: phosphate-buffered saline (DPBS)
Outline: (§1)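 Progesterone prodrugs dissolved at 1 mg/mL in PBS (pH 7.03) or 10 mM acetate buffer (pH 5.0), kept at RT and reinjected over time, HPLC-UV AUC at 254 nm. Percent parent remaining; k from ln(%remaining) vs time, pseudo-first-order t1/2 = 0.693/k; duplicates averaged.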

[2] = Formation of progesterone oxime 3 from prodrugs in human plasma at 37 °C over 2 h; format: in vitro ADME; conditions: 2 h period
Description: Given the greater biological relevance of plasma, we focused on quantifying the formation of progesterone and allopregnanolone oxime in human plasma at 37 °C over a 2 h period. Results for selected progesterone prodrugs are presented in Figure A–C, illustrating the broad range of plasma cleavage rates as a function of promoiety design (see Figure S13 in Supporting Information for complete data set). Complete stability data for synthesized allopregnanolone prodrugs (Figures S18–S20) are provided in the Supporting Information. Given that their trends closely paralleled the progesterone series, they were not discussed in detail in the main text. […] This unexpected result prompted further investigation using computational modeling, described in the following section. […] Higher pK a values were associated with faster and more complete oxime formation, likely due to enhanced H-bonding which could stabilize the reactive syn-conformer. […] For the heterocyclic pyrrolidine and angle-strained series (Figure C), the release rates closely matched the experimentally determined prodrug half-lives (Table ), which were shorter in human plasma than in PBS. […] Although both 20s and 20t are capable of adopting the reactive syn-rotamer, their self-immolation reactivity diverged due to differences in linker geometry. The cyclopropane in 20s induces angle strain that hinders nucleophilic attack, rendering the compound stable under both PBS and plasma conditions. […] This intriguing result warrants further investigation, with follow-up studies currently in progress. Finally, the nucleophilic capacity of the amine tethers in prodrugs 20w–20z were evaluated based on their ability to cyclize in plasma, as detailed in the Supporting Information Figure S13.
1.2 Stability in Plasma and PBS via LCMS
Procaine (positive control) was purchased from Sigma-Aldrich. HPLC grade MeCN, MeOH, H2O, and FA were purchased from Fischer Scientific. Human plasma (cat. No. […]- […]
0102242) were obtained from BIOIVT. DPBS 1X (no calcium, no magnesium, pH = 7.03) was purchased from Thermo Fischer Scientific. Stock solutions were prepared in 100% DMSO, and suitable dilutions of target analytes were prepared in 0.1% FA /MeCN for method development.
For PBS assay Gibco® Dulbecco’s phosphate-buffered saline (DPBS 1X, no calcium, no magnesium, pH = 7.03) was utilized. All experiments were performed in duplicate and results are presented as the average of two experimental replicates.
Procedure for Plasma Stability Assay
Test compounds and positive control (i.e. procaine) were dissolved in DMSO to make a 10 mM stock solution and subsequently diluted to 500 μM in 50% MeCN and PBS. […] The supernatant was transferred to an LC-MS vial and analyzed by LC/MS-MS. […]

[3] = Stability in acetate buffer pH 5.0 at room temperature via HPLC (UV); format: physicochemical
Outline: as §1

[4] = Aqueous solubility by visual inspection in acetate buffer (pH 5); conditions: for solubility: sodium acetate buffer, pH 5, aqueous buffer, thermodynamic from solid
Description: For the solubility assessment, acetate buffer (pH 5) was selected as the media of choice to ensure prodrug stability during analysis.
High aqueous solubility was determined by visual inspection of 5 mg solid material in 0.5 mL
sodium acetate buffer solution. This media was selected to ensure stability of prodrugs during
dissolution in 50 mg/mL aqueous media.

[5] = PBS stability assay at 37 °C via LC-MS/MS; format: physicochemical; conditions: 37 °C; for half-life at 3 µM: phosphate-buffered saline (DPBS), pH 7.03, PBS
Description: To address this, prodrug stability was further evaluated in human plasma at 37 °C using liquid chromatography–tandem mass spectrometry (LC-MS/MS). For direct comparison, a parallel screen was conducted in PBS under identical conditions (Table ). To prevent premature degradation prior to LC-MS/MS analysis, acetonitrile containing formic acid was used as a quenching solution to acidify and stabilize the prodrugs in vials. […] This limitation in detection, along with the need for a more uniform and broadly applicable assessment across all compounds, prompted us to monitor the formation of the parent oxime as an alternative readout.
Stability experiments in human plasma and PBS were performed via liquid chromatography-tandem mass spectrometry (LC-MS/MS) to determine and compare rate of cleavage of progesterone prodrugs as well as selected allopregnanolone prodrugs (3 µM) when incubated at 37 °C. All experiments were performed in duplicate and results are presented as the average of two experimental replicates.

[6] = Plasma stability assay at 37 °C via LC-MS/MS, human plasma; format: in vitro ADME;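 also: prodrugs at 3 µM incubated in human plasma at 37 °C, intact prodrug quantified by LC-MS/MS over time, values are means of duplicate runs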
[7] = pH 7.03, DPBS pH 7.03, RT, 1 mg/mL, HPLC 254 nm, read-out: t1/2 in PBS buffer at RT (Tables S1-S4) (converted)
[8] = pH 7.03, PBS, rt, read-out: t½: PBS, rt (Table S23) (converted)
[9] = pH 5, acetate buffer pH 5.0, RT, 1 mg/mL, HPLC 254 nm, read-out: t1/2 in acetate buffer at RT (Tables S5-S8) (converted)
[10] = pH 5, acetate buffer pH 5.0, rt, read-out: t½: pH 5.0, rt (Table S23) (converted)

Structure (SMILES)	half-life at 1 mg/mL [1, 7] [h]	half-life at 1 mg/mL ([1]; pH 7.03, PBS, rt, HPLC (UV), read-out: Half-life (t½) PBS rt (converted)) [h]	half-life at 1 mg/mL [1, 8] [h]	Formation/release of oxime 3 in human plasma, in words [2]	half-life at 1 mg/mL [3, 9] [h]	half-life at 1 mg/mL ([3]; pH 5, acetate buffer pH 5.0, rt, HPLC (UV), read-out: Half-life (t½) pH 5.0 rt (converted)) [h]	half-life at 1 mg/mL [3, 10] [h]	Solubility pH 5.0, rt ([4]; sodium acetate buffer pH 5, rt, visual inspection)	solubility [4] [µg/mL]	PBS, 37 °C %rem. at 2h (Table S23) ([5]; PBS, 2 h) [%]	half-life at 3 µM ([5]; 3 µM, LC-MS/MS, read-out: t1/2 in PBS at 37 °C (Tables S14-S17) (converted)) [h]	half-life at 3 µM ([5]; read-out: PBS, 37 °C t½ (Table S23) (converted)) [h]	t1/2 in human plasma at 37 °C (Tables S10-S13, S18) ([6]; 3 µM, LC-MS/MS)	Plasma, 37 °C %rem. at 2h (Table S23) ([6]; 2 h)	half-life at 3 µM ([6]; human, plasma, read-out: Plasma, 37 °C t½ (Table S23) (converted)) [h]
CNCCN(CCN1CCCC1)C(=O)O/N=C(\C)[C@H]1CC[C@H]2[C@@H]3CCC4=CC(=O)CC[C@]4(C)[C@H]3CC[C@]12C.O=C(O)C(F)(F)F [20h]	7.23 ± 1.9	7.23	7.23	rapid, first-order release	105	105	105	degrades	< 10000	–	–	–	–	–	–
C/C(=N\OC(=O)N(C)CC[C@@H]1CCCN1)[C@H]1CC[C@H]2[C@@H]3CCC4=CC(=O)CC[C@]4(C)[C@H]3CC[C@]12C.O=C(O)C(F)(F)F [20n]	> 24	–	> 24	low levels of oxime	> 168	–	> 168	–	> 10000	77	26.5	26.5	stable	stable	> 24
